Measurements published in patent US10259808B2 (Genentech, Inc., priority 2015, dated 2019).

Target: T1, RORc ligand binding domain (Homo sapiens, UniProt P51449)
T1 sequence (P51449 269-508 limits assumed): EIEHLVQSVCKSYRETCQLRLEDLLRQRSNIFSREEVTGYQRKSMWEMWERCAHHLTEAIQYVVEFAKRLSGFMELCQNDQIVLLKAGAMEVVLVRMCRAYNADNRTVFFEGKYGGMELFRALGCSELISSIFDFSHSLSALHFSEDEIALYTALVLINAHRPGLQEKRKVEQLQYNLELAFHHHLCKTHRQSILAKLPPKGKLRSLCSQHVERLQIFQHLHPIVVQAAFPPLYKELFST
Test: In vitro RORc ligand binding assay (25-[3H]hydroxycholesterol displacement)

Row | Compound | IC50 [nM]
1 | C[C@H]1CC[C@H](c2ccccc2)S(=O)(=O)N1Cc1ccc(C2(Cn3cnnc3)CCOCC2)cc1F [Example 40, (3S,6R)-2-[[2-fluoro-4-[4-(1,2,4-triazol-4-ylmethyl)tetrahydropyran-4-yl]phenyl]methyl]-3-methyl-6-phenyl-thiazinane 1,1-dioxide] | 118
2 | C[C@H]1CC[C@H](c2ccccc2)S(=O)(=O)N1Cc1ccc(C2(c3nnco3)CCOCC2)cc1F [Example 42, (3S,6R)-2-[[2-fluoro-4-[4-(1,3,4-oxadiazol-2-yl)tetrahydropyran-4-yl]phenyl]methyl]-3-methyl-6-phenyl-thiazinane 1,1-dioxide] | 54.6
3 | Cc1nnc(C2(c3ccc(CN4[C@@H](C)CC[C@H](c5ccccc5)S4(=O)=O)c(F)c3)CCOCC2)o1 [Example 43, (3S,6R)-2-[[2-fluoro-4-[4-(5-methyl-1,3,4-oxadiazol-2-yl)tetrahydropyran-4-yl]phenyl]methyl]-3-methyl-6-phenyl-thiazinane 1,1-dioxide] | 142
4 | C[C@H]1CC[C@H](c2ccccc2)S(=O)(=O)N1Cc1ccc(C2(c3nnc(CO)o3)CCOCC2)cc1F [Example 44, [5-[4-[3-fluoro-4-[[(3S,6R)-3-methyl-1,1-dioxo-6-phenyl-thiazinan-2-yl]methyl]phenyl]tetrahydropyran-4-yl]-1,3,4-oxadiazol-2-yl]methanol] | 102
5 | C[C@H]1CC[C@H](c2ccccc2)S(=O)(=O)N1Cc1ccc(C2(n3cnnc3)CCOCC2)cc1F [Example 45, (3S,6R)-2-[[2-fluoro-4-[4-(1,2,4-triazol-4-yl)tetrahydropyran-4-yl]phenyl]methyl]-3-methyl-6-phenyl-thiazinane 1,1-dioxide] | 87.7
6 | Cc1nnc(C2(c3ccc(CN4[C@@H](C)CC[C@H](c5ccccc5)S4(=O)=O)c(F)c3)CCOCC2)[nH]1 [Example 47, (3S,6R)-2-[[2-fluoro-4-[4-(5-methyl-4H-1,2,4-triazol-3-yl)tetrahydropyran-4-yl]phenyl]methyl]-3-methyl-6-phenyl-thiazinane 1,1-dioxide] | 114
7 | CCOC(=O)Cn1cnc(C2(c3cc(F)c(CN4[C@@H](C)CC[C@H](c5ccccc5)S4(=O)=O)cc3F)CCOCC2)n1 [Example 52, ethyl 2-[3-[4-[2,5-difluoro-4-[[(3S,6R)-3-methyl-1,1-dioxo-6-phenyl-thiazinan-2-yl]methyl]phenyl]tetrahydropyran-4-yl]-1,2,4-triazol-1-yl]acetate] | 71
8 | C[C@H]1CC[C@H](c2ccccc2)S(=O)(=O)N1Cc1cc(F)c(C2(c3ncn(CC(N)=O)n3)CCOCC2)cc1F [Example 53, 2-[3-[4-[2,5-difluoro-4-[[(3S,6R)-3-methyl-1,1-dioxo-6-phenyl-thiazinan-2-yl]methyl]phenyl]tetrahydropyran-4-yl]-1,2,4-triazol-1-yl]acetamide] | 103
9 | C[C@H]1CC[C@H](c2ccccc2)S(=O)(=O)N1Cc1cc(F)c(C2(c3ncn(CCO)n3)CCOCC2)cc1F [Example 54, 2-[3-[4-[2,5-difluoro-4-[[(3S,6R)-3-methyl-1,1-dioxo-6-phenyl-thiazinan-2-yl]methyl]phenyl]tetrahydropyran-4-yl]-1,2,4-triazol-1-yl]ethanol] | 57

These reach a lower IC50. Values come first.

Row | IC50 [nM] | Compound
10 | 27.3 | C[C@H]1CC[C@H](c2ccccc2)S(=O)(=O)N1Cc1cc(F)c(C2(C(=O)n3cccn3)CCOCC2)cc1F [Example 39, [4-[2,5-difluoro-4-[[(3S,6R)-3-methyl-1,1-dioxo-6-phenyl-thiazinan-2-yl]methyl]phenyl]tetrahydropyran-4-yl]-pyrazol-1-yl-methanone]
11 | 41.8 | Cc1nnc(NCC2(c3ccc(CN4[C@@H](C)CC[C@H](c5ccccc5)S4(=O)=O)c(F)c3)CCOCC2)o1 [Example 41, N-[[4-[3-fluoro-4-[[(3S,6R)-3-methyl-1,1-dioxo-6-phenyl-thiazinan-2-yl]methyl]phenyl]tetrahydropyran-4-yl]methyl]-5-methyl-1,3,4-oxadiazol-2-amine]
12 | 26.6 | C[C@H]1CC[C@H](c2ccccc2)S(=O)(=O)N1Cc1ccc(C2(c3nnc[nH]3)CCOCC2)cc1F [Example 46, (3S,6R)-2-[[2-fluoro-4-[4-(4H-1,2,4-triazol-3-yl)tetrahydropyran-4-yl]phenyl]methyl]-3-methyl-6-phenyl-thiazinane 1,1-dioxide]
13 | 21.6 | Cc1nnc(C2(c3cc(F)c(CN4[C@@H](C)CC[C@H](c5ccccc5)S4(=O)=O)cc3F)CCOCC2)[nH]1 [Example 48, (3S,6R)-2-[[2,5-difluoro-4-[4-(5-methyl-4H-1,2,4-triazol-3-yl)tetrahydropyran-4-yl]phenyl]methyl]-3-methyl-6-phenyl-thiazinane 1,1-dioxide]
14 | 40.4 | Cc1nnc(C2(c3cc(F)c(CN4[C@@H](C)CC[C@H](c5ccccc5)S4(=O)=O)cc3F)CC2)[nH]1 [Example 49, (3S,6R)-2-[[2,5-difluoro-4-[1-(5-methyl-4H-1,2,4-triazol-3-yl)cyclopropyl]phenyl]methyl]-3-methyl-6-phenyl-thiazinane 1,1-dioxide]
15 | 28.6 | C[C@H]1CC[C@H](c2ccccc2)S(=O)(=O)N1Cc1cc(F)c(C2(c3nnc[nH]3)CCOCC2)cc1F [Example 50, (3S,6R)-2-[[2,5-difluoro-4-[4-(4H-1,2,4-triazol-3-yl)tetrahydropyran-4-yl]phenyl]methyl]-3-methyl-6-phenyl-thiazinane 1,1-dioxide]
16 | 10.7 | C[C@H]1CC[C@H](c2ccccc2)S(=O)(=O)N1Cc1ccc(C2(NCc3ncnn3C)CCOCC2)cc1F [Example 55, 4-[3-fluoro-4-[[(3S,6R)-3-methyl-1,1-dioxo-6-phenyl-thiazinan-2-yl]methyl]phenyl]-N-[(2-methyl-1,2,4-triazol-3-yl)methyl]tetrahydropyran-4-amine]
17 | 7.2 | C[C@H]1CC[C@H](c2ccccc2)S(=O)(=O)N1Cc1ccc(C2(OCc3nnc[nH]3)CCOCC2)cc1F [Example 56, (3S,6R)-2-[[2-fluoro-4-[4-(4H-1,2,4-triazol-3-ylmethoxy)tetrahydropyran-4-yl]phenyl]methyl]-3-methyl-6-phenyl-thiazinane 1,1-dioxide]
18 | 28.2 | C[C@H]1CC[C@H](c2ccccc2)S(=O)(=O)N1Cc1cc(F)c(C2(c3nnc(CO)o3)CCOCC2)cc1F [Example 57, [5-[4-[2,5-difluoro-4-[[(3S,6R)-3-methyl-1,1-dioxo-6-phenyl-thiazinan-2-yl]methyl]phenyl]tetrahydropyran-4-yl]-1,3,4-oxadiazol-2-yl]methanol]
19 | 6.6 | C[C@H]1CC[C@H](c2ccccc2)S(=O)(=O)N1Cc1cc(F)c(C2(c3n[nH]c(=O)o3)CCOCC2)cc1F [Example 58, 5-[4-[2,5-difluoro-4-[[(3S,6R)-3-methyl-1,1-dioxo-6-phenyl-thiazinan-2-yl]methyl]phenyl]tetrahydropyran-4-yl]-3H-1,3,4-oxadiazol-2-one]
20 | 23.2 | C[C@H]1CC[C@H](c2ccccc2)S(=O)(=O)N1Cc1ccc(C2(OCc3nnc[nH]3)COC2)cc1F [Example 59, (3S,6R)-2-[[2-fluoro-4-[3-(4H-1,2,4-triazol-3-ylmethoxy)oxetan-3-yl]phenyl]methyl]-3-methyl-6-phenyl-thiazinane 1,1-dioxide]
